According to the supplement of paper PMC10307832:

What was measured:
Assay in all cases: relative viability (nuclei count vs DMSO), 5 days (fraction); higher = more cells survive
Cediranib + Palbociclib = compound: COc1cc2c(Oc3ccc4[nH]c(C)cc4c3F)ncnc2cc1OCCCN1CCCC1 [Cediranib] + CC(=O)c1c(C)c2cnc(Nc3ccc(N4CCNCC4)cn3)nc2n(C2CCCC2)c1=O [Palbociclib] (partner 0.5 µM)
Procedure, shortened: (§1)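 Lung cancer cell lines in 1536-well plates got either a single drug or a fixed anchor-drug dose together with five library-drug doses (not always all listed) in √10 steps, by pin tool, on the day after seeding. Nuclei were counted after 5 days, and relative viability is the treated-to-vehicle ratio of nuclei counts. Values are medians of duplicate plates.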

Cediranib + Tozasertib = compound: COc1cc2c(Oc3ccc4[nH]c(C)cc4c3F)ncnc2cc1OCCCN1CCCC1 [Cediranib] + Cc1cc(Nc2cc(N3CCN(C)CC3)nc(Sc3ccc(NC(=O)C4CC4)cc3)n2)n[nH]1 [Tozasertib] (partner 0.1 µM)
Procedure, shortened: as §1

Decitabine + OSI-027 = compound: Nc1ncn([C@H]2C[C@H](O)[C@@H](CO)O2)c(=O)n1 [Decitabine] + COc1cccc2cc(-c3nc([C@H]4CC[C@H](C(=O)O)CC4)n4ncnc(N)c34)[nH]c12 [OSI-027] (partner 0.5 µM)
Procedure, shortened: as §1

[1] = compound: O=C(C[C@H]1NCCC[C@@H]1O)Cn1cnc2cc(Br)c(Cl)cc2c1=O (racemic) [Halofuginone] + N=C(N)NC(=N)NCCc1ccccc1 [Phenformin] (partner 250 µM)
Procedure, shortened: as §1

Cell Line	relative viability (Cediranib + Palbociclib; first compound 0.04 µM)	relative viability (Cediranib + Palbociclib; first compound 0.1265 µM)	relative viability (Cediranib + Palbociclib; first compound 0.4 µM)	relative viability (Cediranib + Palbociclib; first compound 1.265 µM)	relative viability (Cediranib + Palbociclib; first compound 4 µM)	relative viability (Cediranib + Tozasertib; first compound 0.04 µM)	relative viability (Cediranib + Tozasertib; first compound 0.1265 µM)	relative viability (Cediranib + Tozasertib; first compound 0.4 µM)	relative viability (Cediranib + Tozasertib; first compound 1.265 µM)	relative viability (Cediranib + Tozasertib; first compound 4 µM)	relative viability (Decitabine + OSI-027; first compound 0.04 µM)	relative viability (Decitabine + OSI-027; first compound 0.1265 µM)	relative viability (Decitabine + OSI-027; first compound 0.4 µM)	relative viability (Decitabine + OSI-027; first compound 1.265 µM)	relative viability (Decitabine + OSI-027; first compound 4 µM)	relative viability ([1]; first compound 0.001 µM)	relative viability ([1]; first compound 0.003162 µM)	relative viability ([1]; first compound 0.01 µM)	relative viability ([1]; first compound 0.03162 µM)	relative viability ([1]; first compound 0.1 µM)
NCI-H838	0.229	0.228	0.218	0.181	0.214	0.272	0.264	0.229	0.297	0.276	0.359	0.324	0.279	0.273	0.29	0.668	0.713	0.525	0.347	0.199
NCI-H1648	0.28	0.242	0.287	0.307	0.633	0.55	–	0.449	0.502	0.442	0.266	0.236	0.264	0.267	0.26	–	–	–	–	–
LCLC-97TM1	0.277	–	0.194	0.211	0.277	0.217	0.224	0.191	0.227	0.229	0.244	0.295	0.188	0.229	0.11	0.4	0.408	0.351	0.417	0.332
HCC-15	0.69	–	0.681	0.751	0.678	0.507	–	0.391	0.36	0.358	0.688	0.722	0.328	0.445	0.327	0.471	0.534	0.46	0.467	0.429
CAL-12T	0.535	0.408	0.411	0.466	0.666	0.333	0.333	0.29	0.397	0.293	0.558	0.612	–	0.305	0.268	0.582	0.592	0.555	0.603	0.509
NCI-H727	0.649	0.736	0.703	0.616	0.644	–	0.591	0.536	0.762	0.549	0.485	0.65	0.477	0.57	0.426	0.784	0.577	0.422	0.628	0.317
ABC-1	0.766	1.04	0.538	0.853	0.426	0.161	0.179	0.186	–	0.191	0.554	0.387	0.492	0.424	0.37	0.27	0.223	0.24	0.234	0.209
NCI-H2023	0.398	0.344	0.359	0.413	0.397	0.389	0.353	0.267	0.433	0.303	0.275	0.29	0.26	0.159	0.15	0.441	0.418	0.383	0.395	0.2
